Measured values published in article PMC4584933, “Establishing the pig as a large animal model for vaccine development against human cancer” (Frontiers in Genetics, 2015).

Assays:
[1] = test system: SLA-1*07:02; experiment: Peptide-MHC class I complex stability, scintillation proximity assay (SPA); design: species or system pig; settings: biotinylated recombinant SLA heavy chain, 125I-β2m, excess unlabeled β2m, read every 40 min, number only if t1/2 ≥ 0.5 h, '-' = not stably binding
Method: (§1) The stability of the selected 198 peptides in complex with relevant SLA class I molecules and β2m was determined using a scintillation proximity assay (SPA), as previously described (Harndahl et al., [2011]). Briefly, biotinylated recombinant MHC class I heavy chains were attached to a streptavidin-coated scintillation microplate together with iodinated (^125I) β2m and candidate peptide resulting in a scintillation signal, which was consecutively measured every 40 min by a scintillation plate counter. The duration of this signal is directly correlated to the stability of the peptide-MHC class I-β2m complex under dissociating conditions and in the presence of excess unlabeled β2m (Harndahl et al., [2011]). Peptides with a half-life ≥ 0.5 h were selected as stable binders.

[2] = test system: SLA-3*04:01; experiment: as above; design: species or system pig; settings: biotinylated recombinant SLA heavy chain, 125I-β2m, excess unlabeled β2m, read every 40 min, number only if t1/2 ≥ 0.5 h, '-' = not stably binding
Method: as §1

[3] = test system: SLA-2*05:02; experiment: as above; design: species or system pig; settings: biotinylated recombinant SLA heavy chain, 125I-β2m, excess unlabeled β2m, read every 40 min, number only if t1/2 ≥ 0.5 h, '-' = not stably binding
Method: as §1

[4] = test system: PBMCs; experiment: In vitro peptide stimulation of porcine PBMCs, IFN-γ release assay (ELISA); format: cell-based, pig; design: key to T cell response: “x” indicates that a response was found to this given peptide at least once; settings: 5 μg/ml peptide; for T cell response: PBMCs of immunized pigs, 2 × 10^5/well, 67.5–70.0 h, IFN-γ ELISA, response = 2-fold increase vs day -2 and at least 25 pg/ml IFN-γ, found at least once, SLA restriction not included
[5] = test system: SLA-2*04:01; experiment: Peptide-MHC class I complex stability, scintillation proximity assay (SPA); design: species or system pig; settings: biotinylated recombinant SLA heavy chain, 125I-β2m, excess unlabeled β2m, read every 40 min, number only if t1/2 ≥ 0.5 h, '-' = not stably binding
Method: as §1

Sequence | Binder (t1/2 ≥ 0.5 h): half-life of peptide-SLA-1*07:02 complex [1] | Binder (t1/2 ≥ 0.5 h): half-life of peptide-SLA-2*05:02 complex [3] | T cell response [4] | also measured
HPYDAWIAI [IDO42, porcine IDO-derived 9-11mer peptide] | - (t1/2 (hours) is listed for each of the stably binding peptides (t1/2 ≥ 0.5 h)) |  |  | 
HLVLGYITM [IDO40, porcine IDO-derived 9-11mer peptide] | - (t1/2 (hours) is listed for each of the stably binding peptides (t1/2 ≥ 0.5 h)) |  |  | 
VSLRNYHLQI [IDO130, porcine IDO-derived 9-11mer peptide] |  | - (t1/2 (hours) is listed for each of the stably binding peptides (t1/2 ≥ 0.5 h)) |  | Binder (t1/2 ≥ 0.5 h): half-life of peptide-SLA-3*04:01 complex [2]: - (t1/2 (hours) is listed for each of the stably binding peptides (t1/2 ≥ 0.5 h))
EVEKLATLSI [IDO20, porcine IDO-derived 9-11mer peptide] |  | 42 min | x | 
RPLSYPDTDV [RhoC46, porcine RhoC-derived 9-11mer peptide] | - (t1/2 (hours) is listed for each of the stably binding peptides (t1/2 ≥ 0.5 h)) |  |  | 
YHLQIVTKY [IDO134, porcine IDO-derived 9-11mer peptide] | - (t1/2 (hours) is listed for each of the stably binding peptides (t1/2 ≥ 0.5 h)) |  |  | Binder (t1/2 ≥ 0.5 h): half-life of peptide-SLA-2*04:01 complex [5]: - (t1/2 (hours) is listed for each of the stably binding peptides (t1/2 ≥ 0.5 h))
EVYVPTVFENY [RhoC25, porcine RhoC-derived 9-11mer peptide] | 264 min |  |  | Binder (t1/2 ≥ 0.5 h): half-life of peptide-SLA-2*04:01 complex [5]: 36 min
ELAKMKQEPVR [RhoC16, porcine RhoC-derived 9-11mer peptide] |  | 48 min | x | 
ENIPEKWTPEV [RhoC18, porcine RhoC-derived 9-11mer peptide] |  | 90 min | x | 
HPYDAWIAIAK [IDO43, porcine IDO-derived 9-11mer peptide] | - (t1/2 (hours) is listed for each of the stably binding peptides (t1/2 ≥ 0.5 h)) |  |  | 
SAIKVIPTLF [IDO114, porcine IDO-derived 9-11mer peptide] |  | - (t1/2 (hours) is listed for each of the stably binding peptides (t1/2 ≥ 0.5 h)) | x | Binder (t1/2 ≥ 0.5 h): half-life of peptide-SLA-2*04:01 complex [5]: 30 min
FLQEMRTYM [IDO24, porcine IDO-derived 9-11mer peptide] | - (t1/2 (hours) is listed for each of the stably binding peptides (t1/2 ≥ 0.5 h)) |  |  | 
EIAAASAIKV [IDO15, porcine IDO-derived 9-11mer peptide] |  | 156 min | x | maximum level of secreted IFN-γ ([4]; pig 2042 (CASAC), day 12, following 72 h of stimulation, ELISA): 280 pg/mL
NSWKIFEEYHI [IDO91, porcine IDO-derived 9-11mer peptide] |  | 126 min | x | 
MTYKNMDIL [IDO80, porcine IDO-derived 9-11mer peptide] |  | - (t1/2 (hours) is listed for each of the stably binding peptides (t1/2 ≥ 0.5 h)) |  | Binder (t1/2 ≥ 0.5 h): half-life of peptide-SLA-3*04:01 complex [2]: - (t1/2 (hours) is listed for each of the stably binding peptides (t1/2 ≥ 0.5 h)); Binder (t1/2 ≥ 0.5 h): half-life of peptide-SLA-2*04:01 complex [5]: - (t1/2 (hours) is listed for each of the stably binding peptides (t1/2 ≥ 0.5 h))
DVILMCFSI [RhoC12, porcine RhoC-derived 9-11mer peptide] |  | 354 min | x | 
KLGLPPILVY [IDO55, porcine IDO-derived 9-11mer peptide] | - (t1/2 (hours) is listed for each of the stably binding peptides (t1/2 ≥ 0.5 h)) |  |  | 
KGFFLVSLL [IDO49, porcine IDO-derived 9-11mer peptide] |  | - (t1/2 (hours) is listed for each of the stably binding peptides (t1/2 ≥ 0.5 h)) |  | Binder (t1/2 ≥ 0.5 h): half-life of peptide-SLA-3*04:01 complex [2]: - (t1/2 (hours) is listed for each of the stably binding peptides (t1/2 ≥ 0.5 h))
LSYPDTDVILM [RhoC37, porcine RhoC-derived 9-11mer peptide] |  | 84 min |  | Binder (t1/2 ≥ 0.5 h): half-life of peptide-SLA-2*04:01 complex [5]: - (t1/2 (hours) is listed for each of the stably binding peptides (t1/2 ≥ 0.5 h))
EVKHFCPNV [RhoC23, porcine RhoC-derived 9-11mer peptide] |  | 120 min | x | 
LSYPDTDVIL [RhoC36, porcine RhoC-derived 9-11mer peptide] |  | 36 min | x | 

Sequence | Binder (t1/2 ≥ 0.5 h): half-life of peptide-SLA-1*07:02 complex [1] | Binder (t1/2 ≥ 0.5 h): half-life of peptide-SLA-2*05:02 complex [3] | T cell response [4] | also measured
NSWKIFEEY [IDO89, porcine IDO-derived 9-11mer peptide] | - (t1/2 (hours) is listed for each of the stably binding peptides (t1/2 ≥ 0.5 h)) |  |  | Binder (t1/2 ≥ 0.5 h): half-life of peptide-SLA-2*04:01 complex [5]: 42 min
LVLGYITMAY [IDO73, porcine IDO-derived 9-11mer peptide] | 240 min |  |  | Binder (t1/2 ≥ 0.5 h): half-life of peptide-SLA-2*04:01 complex [5]: 48 min
KVLPRNIAI [IDO62, porcine IDO-derived 9-11mer peptide] |  | - (t1/2 (hours) is listed for each of the stably binding peptides (t1/2 ≥ 0.5 h)) |  | Binder (t1/2 ≥ 0.5 h): half-life of peptide-SLA-3*04:01 complex [2]: - (t1/2 (hours) is listed for each of the stably binding peptides (t1/2 ≥ 0.5 h))
YVPTVFENY [RhoC60, porcine RhoC-derived 9-11mer peptide] | - (t1/2 (hours) is listed for each of the stably binding peptides (t1/2 ≥ 0.5 h)) |  |  | Binder (t1/2 ≥ 0.5 h): half-life of peptide-SLA-2*04:01 complex [5]: - (t1/2 (hours) is listed for each of the stably binding peptides (t1/2 ≥ 0.5 h))
MPPAHRNFLH [IDO77, porcine IDO-derived 9-11mer peptide] | - (t1/2 (hours) is listed for each of the stably binding peptides (t1/2 ≥ 0.5 h)) |  |  | 
NPLEELPHPY [IDO86, porcine IDO-derived 9-11mer peptide] | 312 min |  |  | 
EPVRSEEGRDM [RhoC20, porcine RhoC-derived 9-11mer peptide] | 30 min |  |  | 
LLVEIAAASAI [IDO68, porcine IDO-derived 9-11mer peptide] |  | 30 min | x | 
ALQKALLDI [IDO5, porcine IDO-derived 9-11mer peptide] |  | - (t1/2 (hours) is listed for each of the stably binding peptides (t1/2 ≥ 0.5 h)) | x | 
QAMVSLRNY [IDO100, porcine IDO-derived 9-11mer peptide] | - (t1/2 (hours) is listed for each of the stably binding peptides (t1/2 ≥ 0.5 h)) |  |  | 
WKIFEEYHI [IDO131, porcine IDO-derived 9-11mer peptide] |  | 138 min | x | 
LPNPLEELPH [IDO69, porcine IDO-derived 9-11mer peptide] | - (t1/2 (hours) is listed for each of the stably binding peptides (t1/2 ≥ 0.5 h)) |  |  | 
EVKHFCPNVPI [RhoC24, porcine RhoC-derived 9-11mer peptide] |  | 336 min | x | 
TVFENYIADI [RhoC51, porcine RhoC-derived 9-11mer peptide] |  | 54 min | x | 
DLRQDEHTR [RhoC6, porcine RhoC-derived 9-11mer peptide] |  | 30 min | x | 
PLLSEGLLY [IDO95, porcine IDO-derived 9-11mer peptide] | 42 min |  |  | 
FPGGDCGKGFF [IDO30, porcine IDO-derived 9-11mer peptide] | - (t1/2 (hours) is listed for each of the stably binding peptides (t1/2 ≥ 0.5 h)) |  |  | 
LSYPDTDVI [RhoC35, porcine RhoC-derived 9-11mer peptide] |  | - (t1/2 (hours) is listed for each of the stably binding peptides (t1/2 ≥ 0.5 h)) |  | Binder (t1/2 ≥ 0.5 h): half-life of peptide-SLA-2*04:01 complex [5]: - (t1/2 (hours) is listed for each of the stably binding peptides (t1/2 ≥ 0.5 h))
SLRNYHLQI [IDO118, porcine IDO-derived 9-11mer peptide] |  | - (t1/2 (hours) is listed for each of the stably binding peptides (t1/2 ≥ 0.5 h)) |  | Binder (t1/2 ≥ 0.5 h): half-life of peptide-SLA-3*04:01 complex [2]: - (t1/2 (hours) is listed for each of the stably binding peptides (t1/2 ≥ 0.5 h))
FLHSLESGPSV [IDO23, porcine IDO-derived 9-11mer peptide] |  | 36 min | x | 
HLVLGYITMAY [IDO41, porcine IDO-derived 9-11mer peptide] | 30 min |  |  | 
